The source of these data is PubChem BioAssay AID493085 (Broad Institute, 2011).

Results filed as inconclusive are left out. Activity calls are given as the source filed them.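 How the source made its calls: active means falling-signal curve with half-maximal concentration at or below ten times the top tested dose; inconclusive means flat fit at 30 to 70% inhibition, or poor fit; inactive means signal rise, flat within 30%, or potency beyond limit.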 Some results are limits rather than exact numbers.

For the test, the system named is NIH3T3 R4 HSE-GFP/Tet-RFP reporter, fluorescence, 48 h. The experiment in a line: dox-induced RFP signal loss in R4-3T3 cells – cell-based, NIH3T3 R4, HSE-GFP and Tet-On RFP, cherry-pick, set 3, dose response (AID 493085).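 Further: cells heat shocked 2 h at 42 °C with doxycycline to induce reporters.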

As a reminder, the AC50 is the concentration at which the activity in the assay is half-maximal. Turning to `Cc1occc1C(=O)Nc1cc(C(F)(F)F)ccc1Cl`, the AC50 was > 19.5 µM (inactive).
Then `O=S(=O)(c1ccc2c(c1)C(=NO)c1cc(S(=O)(=O)N3CCCCC3)ccc1-2)N1CCCCC1`, with 2.9 µM; and `COCC1CCCCN1C(=O)c1cc(COc2ccc3ncccc3c2)on1` (stereo not given), with 0.448 µM; and `O=C(CCl)Nc1ccc(Sc2ccc(NC(=O)CCl)cc2)cc1`, with 18.3 µM.
Consider `Nc1ncnc2c1ccn2[C@@H]1O[C@H](CO)[C@@H](O)[C@H]1O`, for which the AC50 is 3.17 µM.
For the molecule `CC(C)c1ccc(-c2nc3ccccc3s2)cc1`, the AC50 is > 19.5 µM (inactive).
Consider `Cc1nc(NCc2ccco2)c2c(C)c(C)sc2n1`, for which the AC50 is 0.435 µM.
For the molecule `Cc1ccc(S(=O)(=O)c2ncccc2[N+](=O)[O-])cc1`, the AC50 is 16.5 µM.
On to `O=C(NCc1ccncc1)C(=O)Nc1nc(C23CC4CC(CC(C4)C2)C3)cs1`, for which the AC50 was 12 µM.
As for `CN(C)c1ccc(CNc2ccc3c(c2)ncn3C(C)(C)C)cc1`, the AC50 is > 19.5 µM (inactive).
As to `O=C(Nc1nnc(S(=O)(=O)N2CCCCCC2)s1)c1cccc(Br)c1`, the AC50 is 0.889 µM.
As for `CSc1ccc(CN(C)Cc2cc(=O)oc3c(C)c(C)ccc23)cc1`, the AC50 is 17.1 µM.
For the molecule `CCOCCn1c(SCC(=O)OCc2ccccc2)nc2c1c(=O)[nH]c(=O)n2C`, the AC50 is > 19.5 µM (inactive).
Then `CCc1ccc(S(=O)(=O)/N=C2\C=C(Nc3ccc(O)cc3)C(=O)c3ccccc32)cc1`, with 1.83 µM; and `CCOc1cc2c(cc1OCC)C(c1ccc(OC)cc1)N(c1ccccc1)C(=O)C2` (stereo not given), with > 19.5 µM (inactive); and `O=C(Nc1ccccc1N1CCCCC1)C1CCN(C(=O)c2ccc(Cl)cc2)CC1`, with > 19.5 µM (inactive).
For the molecule `Oc1ccc(CN2CCCc3ccccc32)c2cccnc12`, the AC50 was 4.67 µM.
In the case of `Cc1nn(-c2ccccc2)c(Cl)c1C(=O)N1CCN(c2ncnc3c2cnn3-c2ccccc2)CC1`, the AC50 was 6.77 µM.
On to `c1ccc(OCCSc2nc3ccccc3o2)cc1`, for which the AC50 was > 19.5 µM (inactive).
With `N#CC1=C(N)C(C#N)(C#N)C(c2cccnc2)C2CC(c3ccccc3)CC=C12` (stereo not given), the AC50 was 19.2 µM.
As for `O=C(Nc1nc(-c2cccs2)cs1)c1cccc(S(=O)(=O)N2CCCCCC2)c1`, the AC50 was 0.674 µM.
With `CCN(CC)S(=O)(=O)c1ccc2c(c1)c(=O)c(C(=O)NCc1ccco1)cn2C`, the AC50 was > 19.5 µM (inactive).
On to `C(=N\NC1=Nc2cccc3cccc1c23)/c1ccccn1`, for which the AC50 is 0.95 µM.
As to `CCOC(=O)N=Nc1c2ccccc2c2nc3no[nH]c3nc12`, the AC50 is 1.91 µM.
As to `CC(C)(C)C(=O)NC(=S)NNC(=O)c1sc2ccccc2c1Cl`, the AC50 was > 19.5 µM (inactive).
With `CS(=O)(=O)c1nc(-c2ccccc2)cc(C(F)(F)F)n1`, the AC50 is 1.81 µM.
With `CCC(Sc1nc(C)cc(C)n1)C(=O)NC1=NN=C(c2ccc(C)cc2)CS1` (stereo not given), the AC50 was 14.8 µM.
For `O=C(N/N=C/c1ccc[nH]1)c1ccc(COc2cccc3cccnc23)cc1`, the AC50 was 0.821 µM.
Consider `CC1CCc2nc(N)c(C#N)c(-c3cccnc3)c2C1` (stereo not given), for which the AC50 is 0.708 µM.
For `CC(=O)c1cn(CC(=O)Nc2ccccc2C)c2ccccc12`, the AC50 is 2.59 µM.
For `CCOC(=O)c1c(N)sc2c(O)c(Br)ccc12`, the AC50 was > 19.5 µM (inactive).
On to `NC(=O)c1cc2ccncc2c2ccccc12`, for which the AC50 is 0.805 µM.
On to `Cc1nc2c(-c3ccccc3)c(C)[nH]n2c(=O)c1Cl`, for which the AC50 is > 19.5 µM (inactive).
For `CC[C@H]1CN2CCc3cc(OC)c(OC)cc3[C@@H]2C[C@@H]1C[C@H]1NCCc2cc(OC)c(OC)cc21`, the AC50 is 0.549 µM.
For the molecule `Cc1ccc(-n2ncc(Br)c(Br)c2=O)cc1`, the AC50 is 18.3 µM.
With `Cc1cccc(C(=O)NC(=S)N2CCN(c3ccc([N+](=O)[O-])cc3)CC2)c1`, the AC50 is > 19.5 µM (inactive).
As for `CCc1ccccc1NC(=O)CSc1nnc(-c2ccncc2)o1`, the AC50 was > 19.5 µM (inactive).
In the case of `Cc1cc(C)nc(NNC2=CC(=[N+]3CCCCC3)CC(C)(C)C2)n1`, the AC50 is 14.5 µM.
The value for `CC(=O)OCCCNc1cc(Sc2ccc(C)cc2)c2nonc2c1[N+](=O)[O-]` was 18.7 µM.
The value for `CCNC(=S)N(C)CCc1cc2c(c(OC)c1C=C1C(=O)N(C)C(=O)N(C)C1=O)OCO2` was > 19.5 µM (inactive); that for `CC12CCC(C/C1=N\N=C1\NC(=O)/C(=C\c3ccc(Cl)cc3)S1)C2(C)C` (stereo not given) was 1.82 µM.
With `CCOc1cc(C(=O)NCc2ccccc2)ccc1OCC(=O)N1CCOCC1`, the AC50 was > 19.5 µM (inactive).
As for `C#CC(=O)N(c1cc(OC)ccc1OC)C(C(=O)NC1CCCC1)c1cccs1` (stereo not given), the AC50 was 5.39 µM.
The value for `O=C(O)c1ccc(NC2=C(Cl)C(=O)c3ccccc3C2=O)cc1` was 18.6 µM.
For `CCOC(=O)c1ccc(-n2[nH]c(-c3ccccc3)cc2=O)cc1`, the AC50 is 4.13 µM.
As for `Cn1c(C(C#N)C(=O)c2sc3ccccc3c2Cl)nc2ccccc21` (stereo not given), the AC50 is > 19.5 µM (inactive).
Regarding `CCCC(=O)N1CCN(c2ccc(NC(=O)c3cc4ccccc4o3)cc2Cl)CC1`, the AC50 is 13.1 µM.
Consider `COc1ccc(OCc2cccc(C(=O)Nn3cc([N+](=O)[O-])cn3)c2)cc1`, for which the AC50 is 9.72 µM.
For `COc1ccc(NCc2nnc(SCC(=O)Nc3cc(C(F)(F)F)ccc3Cl)o2)cc1`, the AC50 was > 19.5 µM (inactive).
With `N#CCc1nn(-c2ccccc2)c2ncnc(N)c12`, the AC50 was > 19.5 µM (inactive).
